Reference: US20040162247A1, “Therapeutic agent or osteoporosis comprising an active ingredient of quercetin derivatives” (priority 2000, published 2004)

How the values were obtained:
[1] = system: ovariectomized rats; assay: Trabecular bone area of tibia in ovariectomized rats;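 on Change Rate (%) of TBA of tibia, of control group: control group rats were ovariectomized and are not the sham group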; type: in vivo, Female SD (Sprague-Dawley) rats; details: OVX rats, 9 weeks i.p. (E2 1 μg/kg/day; quercetin, genistein 10 mg/kg/day); for Change Rate (%) of TBA of tibia, of control group: control group = 100
Experimental: (§1) Trabecular bone area (TBA) of lumbar and tibia removed from the rats of each group which was treated with various agents for 9 weeks were measured as follows: that is, using a digitalizer of quantitative image analysis system (Wild Leitz Co.), image of each trabecula was obtained on computer monitor by drawing a contour of the trabecula, and then, using a computer, calculated were average areas of trabeculae within a rectangle of 2×10^6 μm^2 area wherein the width is about ⅔ of the length of growth plate which located underneath of growth plate at proximity of tibia. Also, following the number of trabeculae within the rectangle were obtained, average area was multiplied by the number of trabeculae to obtain trabecular bone area of each sample bone, which was analyzed statistically (see: Table 5).

[2] = system: ovariectomized rats; assay: Biochemical parameters in plasma of ovariectomized rats; type: in vivo, Female SD (Sprague-Dawley) rats; details: rat, in vivo
Experimental: (§2) When test agents were administered, for a certain period of time before and after administration, 1.5 ml of blood was sampled from tail vein using a catheter (B.D Co.: 24 G) and subjected to complete blood count (Coulter Co.: JT) and biochemical analyses of plasma (Crone Co.: Airon® 200). During autopsy, blood was sampled from caudal venae cavae and subjected to the analyses above. And then, each sample was frozen to store for measurement of trabecular bone area of femur and examination of internal organs.
Since blood reflects the condition of body, safety of quercetin in the body was evaluated by measuring biochemical parameters: that is, blood samples were obtained from the rat prior to operation, one week after operation, and 10 weeks after operation, and measured were levels of alkaline phosphatase (ALP), calcium, inorganic phosphate, blood urea nitrogen (BUN), creatinin, total cholesterol, HDL-cholesterol and LDL-cholesterol (see: Table 8).

[3] = system: ALP activity in osteoblasts (Saos-2); assay: Alkaline phosphatase (ALP) activity in osteoblasts; type: cell-based, human; details: for ALP activity (% of control group): Saos-2, 3 days
Experimental: Since osteoblasts have cell specific alkaline phosphatase activity, the effect of quercetin of the invention on ALP activity in osteoblasts was evaluated as follows: the number of cells, concentration of tested agent, and culture condition were same as those used in MTT experiment of Example 1-2, and cells were harvested after 3 day-incubation. Genistein was used as a comparative agent. ALP activity was evaluated by analysing changes of OD at 405 nm result from hydrolysis of p-nitrophenylphosphate to p-nitrophenol and phosphate (see: Table 1).

[4] = system: human osteoblast-like cell line Saos-2; assay: Cell proliferation of Saos-2 cells, MTT method; type: cell-based; details: for MTT assay (% of control group): Saos-2, 3 days
Experimental: Saos-2 cell line which has similar properties to osteoblasts was obtained from Korean Cell Line Bank affiliated to the Cancer Research Institute of School of Medicine, Seoul National University.
Saos-2 cells were seeded in a RPMI 1640 medium (Gibco BRL, U.S.A.) supplemented with 10% (v/v) FBS, 100 unit/ml penicillin, 100 gg/ml streptomycin and grown to form a monolayer in an incubator at 37° C. under an environment of 5% (v/v) CO2 and saturated humidity. The culture was fed with fresh medium 2 to 3 times a week and subcultured once a week using 0.25% (w/v) trypsin.
Saos-2 cells were distributed into a 96-well plate (20,000 cells/well) and quercetin in 1% DMSO was added to a final concentration of 10-2 to 10^−9 mg/ml, 6 wells per each concentration. As a control group, cells without quercetin were used, and as a comparative group, the cells treated with various concentrations of genistein, being studied as a therapeutic agent for osteoporosis, were used. Cells were grown in an incubator at 37° C. for 3 days and incubated 4 more hours under the same condition after adding MTT (3-[4,5-dimethylthiazol-2-yl]-2,5-diphenyltetrazolium bromide, Triazolyl Blue) to a concentration of 0.05 mg/ml. Then, purple colored for-mazan formed in proportion to the number of viable cells was dissolved in DMSO and measured OD at 550 nm employing ELISA reader.
Cell proliferation rate (%) was evaluated by calculating the ratio of the OD of quercetin added well to the OD of control well, wherein, average value of ODs from 6 wells treated with the same concentration of quercetin was employed (see: Table 1).
cell proliferation rate (%)={(average value of OD at 550 nm of quercetin-treated wells—average value of OD at 550 nm of empty wells)/average value of OD at 550 nm of control wells}×100

[5] = system: ovariectomized rats; assay: Trabecular bone area of lumbars in ovariectomized rats;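 on Change Rate (%) of TBA of lumbars, of control group: control group rats were ovariectomized and are not the sham group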; type: in vivo, Female SD (Sprague-Dawley) rats; details: OVX rats, 9 weeks i.p. (E2 1 μg/kg/day; quercetin, genistein 10 mg/kg/day); for Change Rate (%) of TBA of lumbars, of control group: control group = 100
Experimental: as §1
TBAs of lumbars removed from the animal treated with test agents for 9 weeks were measured employing the same method above (see: Table 6).

[6] = system: ovariectomized rats; assay: Complete blood count in ovariectomized rats; type: in vivo, Female SD (Sprague-Dawley) rats; details: rat, in vivo
Experimental: as §2
Complete blood count which reflects the condition and abnormality of the body was measured to find out abnormality in test animals caused by administrtion of agents. That is, to find out changes in hematopoiesis of test rats, measured were red blood cell (RBC) count, concentration of hemoglobin (Hb) and hematocrit (Ht) of-blood samples obtained from the rats prior to operation and the rats 10 weeks after administrating agents following operation, and to find out changes in immune system such as inflammation and necrosis of tissues, measured were white blood cell count, lymphocyte count, monocyte count, and granulocyte count (see: Table 7).

## O=c1c(O)c(-c2ccc(O)c(O)c2)oc2cc(O)cc(O)c12 [Quercetin, quercetin]
[1]
  TBA (trabecular bone area) of tibia: 55.52 ± 7.68 ×10^4 μm^2
  Change Rate (%) of TBA of tibia, of control group: 160.34 ± 22.17 %
[1]; listed as quercetin
  Change Rate (%) of TBA of tibia, of control group: 160%
[2]
  Concentration of ALP in plasma: 232.83 ± 20.27 U/dL
  Concentration of HDL-cholesterol in plasma: 53.38 ± 3.14 mg/dL
  Concentration of LDL-cholesterol in plasma: 24.17 ± 3.13 mg/dL
  Concentration of blood urea nitrogen (BUN): 17.05 ± 0.60 mg/dL
  Concentration of calcium in plasma: 10.73 ± 0.48 mg/dL
  Concentration of creatinin in plasma: 0.57 ± 0.05 mg/dL
  Concentration of inorganic phosphate in plasma: 6.79 ± 0.66 mg/dL
  Concentration of total cholesterol in plasma: 77.55 ± 5.13 mg/dL
[3]; 1 × 10^−2 mg/ml
  ALP activity (% of control group): 106.1 ± 4.3 % of control group
[3]; 1 × 10^−3 mg/ml
  ALP activity (% of control group): 107.3 ± 1.5 % of control group
[3]; 1 × 10^−4 mg/ml
  ALP activity (% of control group): 113.5 ± 2.3 % of control group
[3]; 1 × 10^−5 mg/ml
  ALP activity (% of control group): 116.5 ± 3.7 % of control group
[3]; 1 × 10^−6 mg/ml
  ALP activity (% of control group): 127.2 ± 3.5 % of control group
[3]; 1 × 10^−6 mg/ml, listed as quercetin
  ALP activity (% of control group): 127 % of control group
[3]; 1 × 10^−7 mg/ml
  ALP activity (% of control group): 101.2 ± 3.1 % of control group
[3]; 1 × 10^−8 mg/ml
  ALP activity (% of control group): 104.4 ± 3.9 % of control group
[3]; 1 × 10^−9 mg/ml
  ALP activity (% of control group): 98.1 ± 0.0 % of control group
[3]; maximum at 1×10^−6 mg/ml (quercetin) versus 1×10^−4 mg/ml (genistein)
  ALP activation effect relative to genistein: about 100 fold
[4]; Saos-2, 1×10^−9 to 1×10^−3 mg/ml
  Cell proliferation by MTT method versus control cells (in words): did not show any difference from the control cells
[4]; 1 × 10^−2 mg/ml
  MTT assay (% of control group): 108.6 ± 2.2 % of control group
[4]; 1 × 10^−2 mg/ml, listed as quercetin
  MTT assay (% of control group): 109 % of control group
[4]; 1 × 10^−3 mg/ml
  MTT assay (% of control group): 98.3 ± 0.8 % of control group
[4]; 1 × 10^−4 mg/ml
  MTT assay (% of control group): 96.5 ± 0.8 % of control group
[4]; 1 × 10^−5 mg/ml
  MTT assay (% of control group): 95.8 ± 1.1 % of control group
[4]; 1 × 10^−6 mg/ml
  MTT assay (% of control group): 96.0 ± 1.0 % of control group
[4]; 1 × 10^−7 mg/ml
  MTT assay (% of control group): 98.6 ± 1.0 % of control group
[4]; 1 × 10^−8 mg/ml
  MTT assay (% of control group): 93.9 ± 0.8 % of control group
[4]; 1 × 10^−9 mg/ml
  MTT assay (% of control group): 93.1 ± 0.8 % of control group
[5]
  TBA (trabecular bone area) of lumbars: 87.38 ± 4.53 ×10^4 μm^2
  Change Rate (%) of TBA of lumbars, of control group: 129.40 ± 6.71 %
[5]; listed as quercetin
  Change Rate (%) of TBA of lumbars, of control group: 129%
[6]
  Concentration of hemoglobin(Hb): 16.00 ± 0.30 g/dL
  Granulocyte count: 2.80 ± 0.30 ×10^3 cells/μl
  Hematocrit(Ht): 43.62 ± 0.83%
  Lymphocyte count: 16.78 ± 3.52 ×10^3 cells/μl
  Monocyte count: 0.65 ± 0.07 ×10^3 cells/μl
  Red blood cell(RBC) count: 7.29 ± 0.15 ×10^6 cells/μl
  White blood cell count: 20.28 ± 3.77 ×10^3 cells/μl
  White blood cell count, before versus after operation (in words): did not show any changes
